Residues, ends and D or L forms follow the SMILES beside them. *: point of attachment. Oleoyl = CCCCCCCC/C=C\CCCCCCCC(=O)*
Experiments:
[1] = Solubility in organic solvents; type: physicochemical
Source text: All the compouds in Table 1 are oils which are soluble in CCl4, ether, CHCl3, CH2 Cl2, AcOEt and MeOH.

[2] = tested on: ddY strain male mice; assay: Anti-hypoxia action (survival time in desiccator evacuated to 180 mmHg); type: in vivo; conditions: for No. of survival/used (Drug): 30 minutes before evacuation to 180 mmHg
Protocol: The compounds of the present invention were checked for their anti-hypoxia action in ddY strain male mice (body weight: 25-34 g). Each of the treated groups consisted of 7 to 10 mice. Test samples were prepared by adding 2 to 3 drops of Tween 80® to physiological saline and suspending the respective compounds in the saline. The so conditioned test samples were administered (0.1 m 10 g) to each of the mice used.
At 30 minutes after the administration, each of the mice was placed in a desiccator having a volume of 1 l, and the desiccator was evacuated to 180 mmHg using a vacuum pump. The period of time from the start of the evacuation until the arrest of breathing was defined as Survival Time (minute).
When a mouse survived for 15 minutes or more, the survival time was recorded as being 15 minutes. Student's t-test was employed for significance analysis.

[3] = tested on: experimental amnesia caused in rats by scopolamine; assay: Preventive effect against experimental amnesia caused in rats by scopolamine (passive avoidance learning); type: in vivo, Wister male rats; conditions: for anti-amnesic action (in words): administered orally (so in the source) in an amount of 0.025 mg/kg
[4] = tested on: experimental amnesia caused in rats by scopolamine; assay: as above; type: in vivo, Wister male rats; conditions: for Avoidance time 24 hrs. later / Avoidance time 48 hrs. later / No. of amnesic rats/No. of rats tested / Percentage amnesia: scopolamine 3 mg/kg i.p. after learning
Protocol: Several of the anti-prolyl endopeptidase compounds of the present invention were checked for their ability to prevent the inhibition of long-term memory fixation by scopolamine. Solutions of physiological saline (0.3 ml) that contained selected compounds of the present inventions in varying amounts ([…], 0.25 mg, 0.1 mg, 0.025 mg and 0.010 mg/kg) were administered intraperitoneally once a day to Wister male rats (100-120 g). One hour after the administration, electric shocks (1.7 mA) were applied to the rats so that they would acquire passive avoidance learning. Immediately thereafter, scopolamine was administered intraperitoneally to each rat in an amount of 3 mg per kg of body weight.
The result of the test was assessed both 24 hours and 48 hours after the administration of scopolamine. The number of amnesic rats and of sound rats was counted for each of the control group (rats to which the test compounds had not been administered but to which only scopolamine and physiological saline had been administered intraperitoneally and the treated group (rats to which both the test compound and scopolamine had been administered). The results are shown in Table 3.

[5] = molecular target: prolyl endopeptidase (Elizabethkingia meningoseptica, UniProt P27028); assay: Measurement of anti-prolyl endopeptidase activity (decomposition of Z-glycyl-proline-β-naphthylamide); type: biochemical; conditions: substrate Z-glycyl-proline-β-naphthylamide, phosphate buffer pH 7.0
Chain of prolyl endopeptidase (P27028 21-705): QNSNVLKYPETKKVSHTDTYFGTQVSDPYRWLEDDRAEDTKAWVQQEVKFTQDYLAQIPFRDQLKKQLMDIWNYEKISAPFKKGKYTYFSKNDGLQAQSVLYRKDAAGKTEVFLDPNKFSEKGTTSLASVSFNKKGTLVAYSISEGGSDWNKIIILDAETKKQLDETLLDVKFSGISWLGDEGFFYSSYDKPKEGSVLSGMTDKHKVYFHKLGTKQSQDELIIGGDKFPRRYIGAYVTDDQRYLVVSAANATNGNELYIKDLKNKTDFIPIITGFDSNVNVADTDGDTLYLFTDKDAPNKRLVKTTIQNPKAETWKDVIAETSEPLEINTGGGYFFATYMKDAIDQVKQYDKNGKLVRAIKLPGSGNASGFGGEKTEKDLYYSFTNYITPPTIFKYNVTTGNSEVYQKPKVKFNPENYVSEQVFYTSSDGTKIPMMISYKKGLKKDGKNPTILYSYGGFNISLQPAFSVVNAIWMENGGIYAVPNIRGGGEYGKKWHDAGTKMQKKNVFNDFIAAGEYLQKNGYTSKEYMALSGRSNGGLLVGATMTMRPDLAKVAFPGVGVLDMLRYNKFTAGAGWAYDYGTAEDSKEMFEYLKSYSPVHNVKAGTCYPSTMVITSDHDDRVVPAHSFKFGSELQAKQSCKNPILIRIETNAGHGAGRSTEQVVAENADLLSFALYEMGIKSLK
Protocol: The method of Yoshimoto and Tsuru (T. Yoshimoto and D. Tsuru, Agr. Biol. Chem. 42, 2417, 1978) was used to measure the anti-prolyl endopeptidase activities of several compounds of the present invention. A mixture of 0.0025M Z-glycyl-proline-β-naphthylamide (0.25 ml), 0.1M phosphate buffer (pH, 7.0; 0.99 ml) and a solution of a particular anti-prolyl endopeptidase compound (0.01 ml) was incubated in a test tube at 37° C. for 3 minutes. Thereafter, 0.1 ml of a solution of prolyl endopeptidase (0.2 U/ml) was added and the mixture was heated at 35° C. for 10 minutes. After the reaction, 2.0 ml of Triton X-100 in 1M acetate buffer (pH, 4.0) was added to the reaction mixture until the final concentration of the surfactant was 10%. The mixture was left at room temperature for 15 minutes and the absorbance (a) at 410 nm was measured.
A sample for blind test was prepared by using the buffer instead of the anti-prolyl endopeptidase compound and its absorbance (b) was also measured. The percent inhibition of prolyl endopeptidase was calculated by the formula: ((b-a)/b)×100, and the amount of a specific compound to achieve 50% inhibition (IC50) was determined.

With `CCCCCCCC/C=C\CCCCCCCC(=O)NC(Cc1ccccc1)C(=O)N1CCCC1C(=O)OC` (stereo not drawn) [SUAM 1194, oleoyl-Phe-Pro-OMe] (Oleoyl-Phe-Pro-OMe; configuration not given here) the solubility in benzene [1] was “soluble in benzene”.

With `CCCCCCCC/C=C\CCCCCCCC(=O)N[C@@H](Cc1ccccc1)C(=O)N1CCC[C@H]1C=O` [SUAM 1212, oleoyl-Phe-Pro-CHO] (Oleoyl-Phe-Pro-aldehyde) the “Survival time Ratio (Drug/Control)” value ([2]; 1 mg/kg i.p.) was 1.27, the “No. of survival/used (Drug)” value ([2]; 1 mg/kg i.p.) was 0/7 and the “Survival time (Mean ± S.E.), Drug” value ([2]; 1 mg/kg i.p., p < 0.05 vs control) was 2.94 ± 0.27 mini. The “Survival time Ratio (Drug/Control)” value ([2]; 10 mg/kg i.p.) was 1.28, the “No. of survival/used (Drug)” value ([2]; 10 mg/kg i.p.) was 0/7 and the “Survival time (Mean ± S.E.), Drug” value ([2]; 10 mg/kg i.p., p < 0.1 vs control) was 2.89 mini. The “anti-amnesic action (in words)” value [3] was “strong anti-amnesic action”, the “Avoidance time 24 hrs. later” value ([4]; sample 25 μg/kg i.p.) was 300 s and the “Avoidance time 48 hrs. later” value ([4]; sample 25 μg/kg i.p.) was 285 s. For the same compound, the “No. of amnesic rats/No. of rats tested” value ([4]; sample 25 μg/kg i.p.) was 0/10, the Percentage amnesia ([4]; sample 25 μg/kg i.p.) was 0% and the “IC50 (amount of compound to achieve 50% inhibition)” value [5] was 0.4 ng/test tube.

With `CCCCCCCC/C=C\CCCCCCCC(=O)NC(CCSC)C(=O)N1CCCC1C=O` (stereo not drawn) [SUAM 1214, oleoyl-Met-Pro-CHO] (Oleoyl-Met-Pro-aldehyde; configuration not given here) the “anti-amnesic action (in words)” value [3] was “considerably excellent anti-amnesic action”, the “Avoidance time 48 hrs. later” value ([3]; sample 1 mg/kg i.p., scopolamine 3 mg/kg i.p. after learning) was 103.0 s and the “anti-amnesic action (in words)” value ([4]; administered orally (so in the source) in an amount of 1 mg/kg) was “no remarkable effect”. The “anti-amnesic action (in words)” value ([4]; dose of 0.01 mg/kg (orally as printed)) was “remarkable anti-amnesic action”, the “Avoidance time 24 hrs. later” value ([4]; sample 10 μg/kg i.p.) was 300 s and the “Avoidance time 48 hrs. later” value ([4]; sample 10 μg/kg i.p.) was 300 s. For the same compound, the “No. of amnesic rats/No. of rats tested” value ([4]; sample 10 μg/kg i.p.) was 0/10, the Percentage amnesia ([4]; sample 10 μg/kg i.p.) was 0% and the “Avoidance time 24 hrs. later” value ([4]; sample 25 μg/kg i.p.) was 300 s. For the same compound, the “Avoidance time 48 hrs. later” value ([4]; sample 25 μg/kg i.p.) was 300 s, the “No. of amnesic rats/No. of rats tested” value ([4]; sample 25 μg/kg i.p.) was 0/10 and the Percentage amnesia ([4]; sample 25 μg/kg i.p.) was 0%. The “Avoidance time 24 hrs. later” value ([4]; sample 100 μg/kg i.p.) was 300 s, the “Avoidance time 48 hrs. later” value ([4]; sample 100 μg/kg i.p.) was 276.4 s and the “No. of amnesic rats/No. of rats tested” value ([4]; sample 100 μg/kg i.p.) was 1/10. The Percentage amnesia ([4]; sample 100 μg/kg i.p.) was 10%, the “Avoidance time 24 hrs. later” value ([4]; sample 250 μg/kg i.p.) was 240.6 s and the “Avoidance time 48 hrs. later” value ([4]; sample 250 μg/kg i.p.) was 226.0 s. The “No. of amnesic rats/No. of rats tested” value ([4]; sample 250 μg/kg i.p.) was 2/10, the Percentage amnesia ([4]; sample 250 μg/kg i.p.) was 20% and the “Avoidance time 24 hrs. later” value ([4]; sample 1 mg/kg i.p.) was 73.0 s. The “No. of amnesic rats/No. of rats tested” value ([4]; sample 1 mg/kg i.p.) was 6/10, the Percentage amnesia ([4]; sample 1 mg/kg i.p.) was 60% and the “IC50 (amount of compound to achieve 50% inhibition)” value [5] was 0.6 ng/test tube.

Reference: US4772587A, “Dipeptide derivative of fatty acid” (Suntory Limited, priority 1985, dated 1988)
